Measured values from the METLIN SMRT retention time set (Domingo-Almenara et al. 2019).

Experiment: gradient 5% acetonitrile 3 min, to 50% in 2 min, to 85% in 15 min, held 3 min, 100 µL/min
Conditions: column: Zorbax Extend-C18 2.1 x 50 mm; eluents: water / acetonitrile, 0.1% formic acid
Outline: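 Data were gathered over 3 months by HPLC coupled to a quadrupole time-of-flight mass spectrometer, operated in positive and negative ionization mode. Mixtures of ~100 pure standards ran on a Zorbax Extend-C18 column (2.1 × 50 mm, 1.8 μm) at 100 μL/min, with water and acetonitrile each containing 0.1% formic acid and dead and dwell volumes of 40 μL and 900 μL. Retention time was read from adduct peaks picked by computer and checked manually.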

Row | SMILES | RP-LC retention time [s]
1 | CC(Cc1cccs1)NC(=O)c1cnccn1 (centres undefined) | 706
2 | Cc1noc2ncn(CC(=O)NCCc3ccccc3Cl)c(=O)c12 | 792
3 | COC(=O)COc1cc(O)c2c(=O)cc(-c3ccccc3)oc2c1 | 990
4 | Cc1nc(-c2cccc(-c3noc(CN4C(=O)COc5ccc(Cl)cc54)n3)c2)cs1 | 1180
5 | CC(C)CN1Cc2ccccc2-n2ccnc2C12CCN(C(=O)C1CC1)CC2 | 648
6 | COc1ccc(-c2nnc(CC(=O)NCC3CCCO3)o2)cc1 (centres undefined) | 650
7 | CN(C)c1ccc(CCCNS(=O)(=O)c2ccc(Cl)s2)cc1 | 655
8 | CCn1c(=O)oc2cc(-c3noc(-c4cc(SC)ccc4Cl)n3)ccc21 | 1270
9 | Cc1ccc(-c2cn3ccn(-c4ccc(C)c(C)c4)c(=O)c3n2)cc1 | 931
10 | COc1ccc(CN(C(=O)COc2c(C)cccc2C)C2CCS(=O)(=O)C2)cc1OC (centres undefined) | 847
11 | O=C(c1ccc(F)c(F)c1)N1CCCC1c1nc(-c2ccccc2Cl)no1 (centres undefined) | 1000
12 | CCC(=O)Nc1ccc(-n2cnc(C(=O)NC3CCC(C)CC3)c2)nc1 (centres undefined) | 710
13 | CCCN1C(=O)CCc2cc(NS(=O)(=O)c3ccc(Cl)c(Cl)c3)ccc21 | 983
14 | O=c1c2cc3c(cc2nc(SCc2nc(-c4ccccc4)no2)n1Cc1ccccc1)OCO3 | 1240
15 | CCn1cc(S(=O)(=O)N2CCC(c3noc(-c4cccnc4)n3)C2)cn1 (centres undefined) | 710
16 | CCOC(=O)c1c(C)n(C)c2cc(Br)c(OC)cc12 | 1090
17 | Cc1ccc(-c2csc(Cc3nc(-c4ccc5c(c4)OCO5)no3)n2)cc1C | 1280
18 | CC(C(=O)N1CCCCC1)n1ccc2cc(S(=O)(=O)N3CCCCCC3)ccc21 (centres undefined) | 1010
19 | COc1ccc(Cl)cc1NC(=O)c1cc(S(=O)(=O)N2CCC(C)CC2)cn1C | 1210
20 | Cc1cc(N(C)C)n2nc(CN3CCCC(C)C3)nc2n1 (centres undefined) | 536
21 | CCN1C(=O)COc2ccc(-c3csc(NC(=O)c4ccncc4)n3)cc21 | 748
22 | CS(=O)(=O)N1CCC(CC(=O)NCCC2=CCCCC2)C1 (centres undefined) | 743

Row | SMILES | RP-LC retention time [s]
23 | COc1ccc(NC(=O)c2nc3nc(C)cc(C(F)F)n3n2)cc1Cl | 813
24 | COc1ccc(-c2nc(NCc3ccco3)ncc2C(=O)O)cc1 | 781
25 | Cc1ccc(C(=O)N(C)C2CCc3nnc(C)n3CC2)s1 (centres undefined) | 613
26 | COC(=O)Cn1c2ccc(F)cc2c2nc3ccccc3nc21 | 658
27 | CC(C)n1cnc(S(=O)(=O)N2CCCC(C(=O)Nc3ccc(F)c(Cl)c3)C2)c1 (centres undefined) | 848
28 | CCc1noc2nc(C)n(CC(=O)NC3CCCc4ccccc43)c(=O)c12 (centres undefined) | 867
29 | CCCc1noc(-c2ccnc(-n3ncc(C(=O)Nc4ccc(C)c(F)c4)c3C)c2)n1 | 1170
30 | CCOc1ccccc1-c1noc(CN2C(=O)COc3ccc(S(=O)(=O)CC)cc32)n1 | 902
31 | COc1ccc(F)cc1S(=O)(=O)N1CCc2nn(CC3CC3)c(=O)n2CC1 | 834
32 | COc1ccc(N2CC(c3nnc(NC(=O)c4ccc(Br)cc4)o3)CC2=O)cc1 (centres undefined) | 759
33 | CCc1nc2cc(-c3noc(-c4ccc(OC)cc4OC)n3)ccc2o1 | 1080
34 | CCCNC(=O)C1=Cc2cc(Cl)cc(OC)c2OC=C1 | 977
35 | COc1cccc(C(=O)Nc2nc(-c3ccc4c(c3)N(C)C(=O)CO4)c(C)s2)c1 | 978
36 | Cc1nc(-c2cccc(F)c2)sc1C(=O)N(C)C | 799
37 | Cc1ccc2oc(-c3noc(C(=O)NCc4ccc5c(c4)OCO5)n3)c(C)c2c1 | 1120
38 | Cc1cc(C)n(-c2ncnc3c2cnn3-c2ccc(F)cc2)n1 | 1420
39 | CN1C(=O)c2cc(S(=O)(=O)Nc3ccc4c(c3)OCO4)ccc2Oc2cccnc21 | 850
40 | CN(C)c1nc2ncn3c(=O)n(CC(=O)Nc4ccccc4)nc3c2s1 | 670
41 | CCN1C(=O)COc2cc(-c3noc(C(=O)NC4CC4)n3)ccc21 | 773
42 | O=S(=O)(c1cccs1)N1CCCCC1c1nncn1CC1CC1 (centres undefined) | 752
43 | CCn1c(=O)oc2cc(-c3noc(-c4ccc(Cl)cc4OC)n3)ccc21 | 1170

The remaining lines, values ahead:

Row | RP-LC retention time [s] | SMILES
44 | 668 | CCOCC(=O)N1CCc2c(c(C(=O)N3CCCC(C(=O)Nc4ccccc4)C3)nn2C)C1 (centres undefined)
45 | 621 | O=C(NCCN1CCOCC1)C1CCN(Cc2cc3ccccc3n2Cc2ccccc2Cl)CC1
46 | 864 | O=C(c1cccc(Br)c1)N1CCN(c2cc(-c3ccc(F)cc3)[nH]n2)CC1
47 | 555 | Cc1cc2n(n1)CCCN2C(=O)CCC(=O)N1CCN(c2ccccn2)CC1
48 | 1410 | O=C(CCC1CCCC1)N1CCc2c([nH]c3ccccc23)C1c1ccc(F)cc1 (centres undefined)
49 | 1150 | C=CCN(Cc1nc(-c2ccc(C)cc2)no1)C(=O)Nc1cccc(Cl)c1
50 | 846 | CC(C)Cn1nc(CNC(=O)c2ccoc2)c2ccccc21
51 | 731 | COc1ccc(CCNC(=O)c2ccc3c(c2)NC(=O)C2CCCCN32)cc1OC (centres undefined)
52 | 911 | COC(=O)C1=CN(c2ccc(F)cc2C)c2ccccc2S1(=O)=O
53 | 883 | O=C(Cc1cccs1)N1CCC(c2nc(-c3ccccc3)no2)C1 (centres undefined)
54 | 769 | COCCc1nncn1C1CCN(S(=O)(=O)c2ccc(Cl)c(C)c2)CC1
55 | 681 | Cc1ccc(CNC(=O)N2CCC(OC3CCN(Cc4ccccc4)CC3)CC2)cc1
56 | 787 | COc1ccccc1N1CCN(CCN2C(=O)c3ccccc3C(C)(C)C2=O)CC1
57 | 852 | O=C(CC1CCCCN1S(=O)(=O)c1ccc(Cl)cc1)NCc1ccco1 (centres undefined)
58 | 978 | CC(C)CCNC(=O)C1(C)CN(S(=O)(=O)c2ccccc2)CC(=O)N1Cc1ccc(F)cc1 (centres undefined)
59 | 637 | O=C(c1ccc(Cl)cc1)N1CCCCC1CCN1CCOCC1 (centres undefined)
60 | 614 | O=C(NCc1nc2ccccc2n1CC(=O)N1CCCCC1)c1ccco1
61 | 686 | O=C(CN1c2ccc(Br)cc2-c2ccccc2S1(=O)=O)NCc1cccnc1
62 | 1010 | Cc1cc(NC(=O)c2ccccc2Br)nc2c1c(=O)oc1ccccc12
63 | 748 | COC(=O)c1c(NC(=O)c2cc3ccccc3c(=O)o2)sc2c1CCCC2
64 | 803 | Cc1cccc(N2C(=O)CN(Cc3ccccc3F)[C@H]3CS(=O)(=O)C[C@H]32)c1
65 | 883 | Cc1cccc(Oc2cc(N3CCC(C(=O)NCCCOC(C)C)CC3)ncn2)c1C
66 | 982 | CCCn1ccc2sc(C)c(C(=O)NCc3ccccc3OCC)c2c1=O

Row | RP-LC retention time [s] | SMILES
67 | 695 | CCOC(=O)COc1cc(-c2ccccc2)nc2ccc(NC(=O)COC)cc12
68 | 596 | O=C(NC1CC1)[C@@H]1C[C@H](Oc2cccnc2)CN1C(=O)Cn1c(=O)oc2ccccc21
69 | 842 | O=C(Cn1c(=O)oc2ccc(C(=O)N3CCCC3)cc21)N1CCN(c2cccc(Cl)c2)CC1
70 | 889 | O=C(Cc1ccc(F)cc1)N1CCC2(CC1)N=C(c1ccc(Cl)cc1)NO2
71 | 1070 | Cc1ccccc1CC(=O)N1C[C@H](c2nc(-c3ccccc3)no2)[C@@H](C)C1
72 | 978 | COc1ccc(-c2noc(C3CCCN3C(=O)C3CCCC3)n2)cc1 (centres undefined)
73 | 889 | O=C(Nc1ccc2nc3n(c(=O)c2c1)CCCCC3)C(=O)N1CCc2ccccc21
74 | 661 | CC1CCN(C(=O)C2CCCN(C(=O)c3nnc(C(=O)Nc4ccc(F)cc4)s3)C2)CC1 (centres undefined)
75 | 607 | Cc1cc(N(C)C)n2nc(CN3CCN(c4ccccc4)CC3)nc2n1
76 | 671 | O=C(Cc1ccsc1)N1CCn2c(nnc2-c2ccccc2)C1
77 | 637 | O=S(=O)(c1cccnc1)N1CCC(OC2CCN(Cc3ccccc3)CC2)CC1
78 | 648 | CC(C)(C)NC(=O)N1CCN(Cc2nc3cccnc3n2-c2cccc(F)c2)CC1
79 | 721 | CC1CCN(c2ncc3c(n2)CCC(C(=O)Nc2ccc(N4CCOCC4)cc2)C3)CC1 (centres undefined)
80 | 830 | Cn1cc(-c2cc3n(n2)CCC(=O)N3CC(=O)NCc2ccccc2Cl)c2ccccc21
81 | 654 | O=C(Nc1ccccc1)NC1CCN(C(=O)N2C[C@H]3C[C@H](C2)[C@H]2CCCC(=O)N2C3)CC1
82 | 567 | Cc1oc2c(c1C(=O)NCC1CCN(Cc3ccc(Cl)cc3)CC1)C1=NCCN1C=N2
83 | 702 | COc1ccc(CNC(=O)N2CCC(N3CCN(Cc4ccccc4)C(=O)C3=O)CC2)cc1
84 | 642 | COc1cccc(S(=O)(=O)N2CCC(CN3CCCCCC3)CC2)c1
85 | 804 | CCN1C(=O)c2c(C(=O)NCc3cccc(Cl)c3)ncn2CC1(C)C(=O)NC1CCCC1 (centres undefined)
86 | 672 | CCCCN(CCCNC(=O)C1CCN(S(=O)(=O)CCC)CC1)Cc1ccccc1
87 | 955 | Cc1ccc(Cn2c(N3CCCC(C(=O)NCC(C)C)C3)nc3ccsc3c2=O)cc1 (centres undefined)
88 | 609 | COc1cccc(NC(=O)CN2CCc3c(c(=O)c4cc(C)ccc4n3C)C2)c1
89 | 684 | O=C(CN1CCC(c2nc(-c3cccs3)no2)CC1)NCc1ccc(F)cc1
